Experimental data published in patent publication US10981932B2, “Macrocyclic indole derivatives” (Bayer Aktiengesellschaft, priority 2016, dated 2021).
Structures can show the parent of a compound that is named as a salt. Where two headings read alike, the source gives them in different places.

Experiments:
SUDHL5 [1] = experiment: Induction of caspase-3/7 activity (Caspase-Glo 3/7), SUDHL5; format: cell-based; settings: caspase-3/7 induction, SUDHL5 cells, 3 h treatment, median
Outline: (§1)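 DLBCL lines SUDHL5 and SUDHL10 treated with compounds for 3 h at 37 °C; caspase-3/7 activity read by Caspase-Glo 3/7 luminescence. Medium-only background subtracted; EC50 fitted with bottom fixed at 1 and top fixed at the reference compound's maximal induction.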

MCL-1 = MCL-1 (Homo sapiens, UniProt Q07820); experiment: Protein-protein interaction assay MCL-1/Noxa BH3 peptide (MCL-1 assay), TR-FRET; format: binding; settings: MBP-MCL-1 / Noxa BH3-derived peptide, median
Outline: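 IC50 came from a 4-parameter fit of the normalized 665/620 nm TR-FRET ratio (anti-MBP Eu-cryptate/streptavidin-XL665). Compounds (0.1 nM–20 μM, duplicates) were preincubated 10 min at 22 °C with 1 nM MBP-MCL-1 in pH 7 Tris/NaCl/KF buffer, then read after 1 h at 22 °C plus overnight at 4 °C.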

SUDHL5 [2] = experiment: Anti-proliferative effect (CellTiter-Glo, 72 h), SUDHL5; format: cell-based; settings: SUDHL5 cells, antiproliferation, median, read-out: Antiproli SUDHL5 [M] (median)
Outline: (§2)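 Cells plated and incubated with compounds for 72 h at 37 °C, with a parallel day 0 reference plate for time-zero signal. Viability read by CellTiter-Glo luminescence after 10 min, measured identically on the day 0 and 72 h plates.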

SUDHL10 [3] = experiment: Induction of cytotoxicity (CellTiter-Glo, 5 h), SUDHL10
SUDHL5 [4] = experiment: Induction of cytotoxicity (CellTiter-Glo, 5 h), SUDHL5
SUDHL10 [5] = experiment: Anti-proliferative effect (CellTiter-Glo, 72 h), SUDHL10; format: cell-based; settings: SUDHL10 cells, antiproliferation, median, read-out: Antiproli SUDHL10 [M] (median)
Outline: as §2

SUDHL10 [6] = experiment: Induction of caspase-3/7 activity (Caspase-Glo 3/7), SUDHL10; format: cell-based; settings: caspase-3/7 induction, SUDHL10 cells, 3 h treatment, median
Outline: as §1

A2780 = experiment: Anti-proliferative effect (CellTiter-Glo, 72 h), A2780; format: cell-based; settings: A2780 cells, median, read-out: IC50 antiproliferation assay A2780 [M] (median)
Outline: as §2

[7] = Homo sapiens, SU-DHL-5, 72 h, 72 h incubation
[8] = Homo sapiens, SU-DHL10, 5 h, read-out: Cytotox SUDHL10 [M] (median), SUDHL10 cells, cytotoxicity induction, CellTiter-Glo, 5 h incubation, median
[9] = Homo sapiens, SU-DHL-5, 5 h, read-out: Cytotox SUDHL5 [M] (median), SUDHL5 cells, cytotoxicity induction, CellTiter-Glo, 5 h incubation, median
[10] = Homo sapiens, SU-DHL10, 72 h, 72 h incubation
[11] = read-out: Cytotox SUDHL10 [M] (median), SUDHL10 cells, cytotoxicity induction, CellTiter-Glo, 5 h incubation, median
[12] = read-out: Cytotox SUDHL5 [M] (median), SUDHL5 cells, cytotoxicity induction, CellTiter-Glo, 5 h incubation, median

Sequence of MCL-1 (Q07820 whole entry): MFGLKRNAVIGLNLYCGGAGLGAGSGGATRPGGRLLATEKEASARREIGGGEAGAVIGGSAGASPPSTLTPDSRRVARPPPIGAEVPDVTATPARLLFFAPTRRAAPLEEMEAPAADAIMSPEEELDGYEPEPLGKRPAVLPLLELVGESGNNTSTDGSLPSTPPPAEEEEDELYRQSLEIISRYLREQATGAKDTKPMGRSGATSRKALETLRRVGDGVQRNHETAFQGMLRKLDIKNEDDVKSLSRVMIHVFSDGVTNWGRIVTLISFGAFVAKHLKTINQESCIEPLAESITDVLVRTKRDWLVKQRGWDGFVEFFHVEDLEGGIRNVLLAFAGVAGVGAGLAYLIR

Row | EC50 (SUDHL5 [1]; Homo sapiens, SU-DHL-5, 3 h) | IC50 (MCL-1) | IC50 (SUDHL5 [2]; [7]) | IC50 (SUDHL10 [5]; [10]) | EC50 (SUDHL10 [6]; Homo sapiens, SU-DHL10, 3 h) | IC50 (A2780; Homo sapiens, A2780, 72 h) | EC50 (SUDHL5 [1]) | IC50 (SUDHL5 [2]; 72 h incubation) | IC50 (SUDHL10 [5]; 72 h incubation) | EC50 (SUDHL10 [6]) | IC50 (A2780) | IC50 (SUDHL5 [2]; Homo sapiens, SU-DHL-5, 72 h, 72 h) | IC50 (SUDHL10 [5]; Homo sapiens, SU-DHL10, 72 h, 72 h) | Structure (SMILES) | IC50 (SUDHL10 [3]; [8]) | IC50 (SUDHL5 [4]; [9]) | IC50 (SUDHL10 [3]; [11]) | IC50 (SUDHL5 [4]; [12]) | IC50 (SUDHL10 [3]; Homo sapiens, SU-DHL10, 5 h, read-out: Cytotox SUDHL10 [M] (median), SUDHL10 cells, cytotoxicity induction, CellTiter-Glo, 5 h, median) | IC50 (SUDHL5 [4]; Homo sapiens, SU-DHL-5, 5 h, read-out: Cytotox SUDHL5 [M] (median), SUDHL5 cells, cytotoxicity induction, CellTiter-Glo, 5 h, median)
1 | 14.2 µM | 0.00318 µM | 1.1e-05 M | 6.98e-06 M | > 33 µM | 1.57e-05 M | – | – | – | – | – | – | – | Cc1cc2c(OCCCc3c(C(=O)O)n4c5c(cccc35)-c3c(C)nn(C)c3COCCCC4)cccc2cc1F (racemic) [Example 049, (rac)-7-{3-[(6-fluoro-7-methylnaphthalen-1-yl)oxy]propyl}-1,3-dimethyl-1,10,11,12,13,15-hexahydropyrazolo[4′,3′:9,10][1,6]oxazacycloundecino[8,7,6-hi]indole-8-carboxylic Acid] | 3.14e-05 M | 1.13e-05 M | – | – | – | –
2 | 14.5 µM | 0.0177 µM | 7.77e-06 M | 8.97e-06 M | 28.2 µM | 2.36e-05 M | – | – | – | – | – | – | – | Cn1nc(CN2CC(F)(F)C2)c2c1COCCCCn1c(C(=O)O)c(CCCOc3cccc4ccccc34)c3cccc-2c31 (racemic) [Example 180, (rac)-3-[(3,3-difluoroazetidin-1-yl)methyl]-1-methyl-7-[3-(naphthalen-1-yloxy)propyl]-1,10,11,12,13,15-hexahydropyrazolo[4′,3′:9,10][1,6]oxazacycloundecino[8,7,6-hi]indole-8-carboxylic Acid] | 3.11e-05 M | 1.1e-05 M | – | – | – | –
3 | 2.69 µM | 0.00664 µM | 5.23e-06 M | 5e-06 M | 6.42 µM | 1.84e-05 M | – | – | – | – | – | – | – | Cc1nn(CCN(C)C)c2c1-c1cccc3c(CCCOc4cccc5ccccc45)c(C(=O)O)n(c13)CCCCOC2 (racemic) [Example 244, (rac)-1-[2-(dimethylamino)ethyl]-3-methyl-7-[3-(naphthalen-1-yloxy)propyl]-1,10,11,12,13,15-hexahydropyrazolo[4′,3′:9,10][1,6]oxazacycloundecino[8,7,6-hi]indole-8-carboxylic Acid Trifluoroacetic Acid Salt] | 6.6e-06 M | 3.2e-06 M | – | – | – | –
4 | – | 0.0248 µM | – | – | – | – | > 33 µM | 1.87e-05 M | 1.12e-05 M | 18.8 µM | 2.57e-05 M | – | – | CCc1nn(CCN2CCOCC2)c2c1-c1cccc3c(CCCOc4cccc5ccccc45)c(C(=O)O)n(c13)CCCCOC2 (single isomer, unassigned; enantiomer 2) [Example 200, 3-ethyl-1-[2-(morpholin-4-yl)ethyl]-7-[3-(naphthalen-1-yloxy)propyl]-1,10,11,12,13,15-hexahydropyrazolo[4′3′:9,10][1,6]oxazacycloundecino[8,7,6-hi]indole-carboxylic Acid (Enantiomer 2)] | – | – | 1.99e-05 M | 2.41e-05 M | – | –
5 | 5.21 µM | 0.00615 µM | 5.26e-06 M | 9.3e-06 M | 17.3 µM | 3.04e-05 M | – | – | – | – | > 3.3e-05 M | – | – | O=C(O)c1c(CCCOc2cccc3ccccc23)c2cccc3c2n1CCCCOCc1nn2c(c1-3)OCCC2 (racemic) [Example 247, (rac)-1-[3-(naphthalen-1-yloxy)propyl]-4,5,6,7,13,14-hexahydro-9H,12H-[1,3]oxazino[3″,2″: 1′,5′]pyrazolo[4′,3′:9,10][1,6]oxazacycloundecino[8,7,6-hi]indole-2-carboxylic Acid] | 1.9e-05 M | 6.79e-06 M | – | – | – | –
6 | – | 0.126 µM | – | – | – | – | > 33 µM | 2.59e-05 M | 1.55e-05 M | > 33 µM | 2.46e-05 M | – | – | Cc1nn(C)c2c1-c1cccc3c(CCCOc4cccc5c4CCCC5)c(C(=O)O)n(c13)CCCCOC2 (single isomer, unassigned; enantiomer 2) [Example 008, 1,3-dimethyl-7-[3-(5,6,7,8-tetrahydronaphthalen-1-yloxy)propyl]-1,10,11,12,13,15-hexahydropyrazolo[4′3′:9,10][1,6]oxazacycloundecino[8,7,6-hi]indole-8-carboxylic Acid-N-ethylethanamine Salt (Enantiomer 2)] | – | – | > 3.3e-05 M | > 3.3e-05 M | – | –
7 | – | 0.00974 µM | – | 1.97e-05 M | – | > 3.3e-05 M | 9.57 µM | 2.94e-06 M | – | 13.1 µM | – | – | – | Cn1ccnc1COCc1nn(C)c2c1-c1cccc3c(CCCOc4cccc5ccccc45)c(C(=O)O)n(c13)CCCCOC2 (single isomer, unassigned) [Example 232, (+)-1-methyl-3-{[(1-methyl-1H-imidazol-2-yl)methoxy]methyl}-7-[3-(naphthalen-1-yloxy)propyl]-1,10,11,12,13,15-hexahydropyrazolo[4′,3′:9,10][1,6]oxazacycloundecino[8,7,6-hi]indole-8-carboxylic Acid] | – | – | 1.32e-05 M | 7.5e-06 M | – | –
8 | 9.85 µM | 0.0157 µM | 8.69e-06 M | 1.4e-05 M | 18.6 µM | > 3.3e-05 M | – | – | – | – | 2.28e-05 M | – | – | Cn1nc2c(c1C(F)(F)F)-c1cccc3c(CCCOc4cccc5ccccc45)c(C(=O)O)n(c13)CCCCOC2 (racemic) [Example 186, (rac)-2-methyl-7-[3-(naphthalen-1-yloxy)propyl]-3-(trifluoromethyl)-2,10,11,12,13,15-hexahydropyrazolo[4′3′:9,10][1,6]oxazacycloundecino[8,7,6,6-hi]indole-8-carboxylic Acid] | 2.61e-05 M | 1.14e-05 M | – | – | – | –
9 | – | 0.327 µM | – | – | – | – | > 33 µM | > 3.3e-05 M | 5.45e-06 M | > 33 µM | 2.61e-05 M | – | – | Cc1nn(CC(F)(F)F)c2c1-c1cccc3c(CCCOc4cccc5ccccc45)c(C(=O)O)n(c13)CCCCOC2 (single isomer, unassigned; enantiomer 2) [Example 111, 3-methyl-7-[3-(naphthalen-1-yloxy)propyl]-1-(2,2,2-trifluoroethyl)-1,10,11,12,13,15-hexahydropyrazolo[4′,3′:9,10][,6]oxazacycloundecino[8,7,6-hi]indole-8-carboxy ic acid-N-ethylethanamine Salt (Enantiomer 2)] | – | – | > 3.3e-05 M | > 3.3e-05 M | – | –
10 | 29.7 µM | 0.325 µM | – | – | > 33 µM | 1.9e-05 M | – | – | – | – | – | 1.92e-06 M | 1.11e-06 M | Cn1nc(COC(=O)NCC(F)(F)F)c2c1COCCCCn1c(C(=O)O)c(CCCOc3cccc4ccccc34)c3cccc-2c31 (single isomer, unassigned; enantiomer 1) [Example 343, 1-methyl-7-[3-(naphthalen-1-yloxy)propyl]-3-({[(2,2,2-trifluoroethyl)carbamoyl]oxy}methyl)-1,10,11,12,13,15-hexahydropyrazolo[4′,3′:9,10][1,6]oxazacycloundecino[8,7,6-hi]indole-8-carboxylic Acid (Enantiomer 1)] | – | – | – | – | > 3.3e-05 M | > 3.3e-05 M
11 | – | 0.00523 µM | 8.25e-06 M | 1.89e-05 M | – | 2.25e-05 M | 4.73 µM | – | – | 12.5 µM | – | – | – | CCc1c2c(nn1C)CN(C)CCCn1c(C(=O)O)c(CCCOc3cccc4ccccc34)c3cccc-2c31 (single isomer, unassigned; enantiomer 1) [Example 142, 11-Ethyl-7,10-dimethyl-1-[3-(1-naphthyloxy)propyl]-4,5,6,7,8,10-hexahydropyrazolo[3′,4′:7,8][1,5]diazecino[9,10,1-hi]indole-2-carboxylic acid-N-ethylethanamine Salt (Enantiomer 1)] | – | – | 1.34e-05 M | 6.07e-06 M | – | –
